Data reported in patent US10212936B2, “Molecules having pesticidal utility, and intermediates, compositions, and processes, related thereto” (priority 2014, dated 2019).

How the values were obtained:
Format in all cases: in vivo
[1] = tested on: Beet Armyworm (Spodoptera exigua, LAPHEG); experiment: Bioassay on Beet Armyworm (BAW), 128-well diet tray assay; conditions: 168 h, 50 μg/cm^2 on artificial diet, second instar larvae, five to seven days, 25° C., read-out: BAW % Control (or Mortality) rating
Procedure: (§1) Example A: Bioassays on Beet Armyworm (Spodoptera exigua, LAPHEG) (“BAW”), Corn Earworm (Helicoverpa zea, HELIZE) (“CEW”), and Cabbage Looper (Trichoplusia ni, TRIPNI) (“CL”)
(§2) Certain molecules disclosed in this document were tested against BAW, CEW, and CL using procedures described in the following examples. In the reporting of the results, the “BAW, CEW, & CL Rating Table” was used (See Table Section).
Bioassays on BAW were conducted using a 128-well diet tray assay. one to five second instar BAW larvae were placed in each well (3 mL) of the diet tray that had been previously filled with 1 mL of artificial diet to which 50 μg/cm^2 of the test molecule (dissolved in 50 μL of 90:10 acetone-water mixture) had been applied (to each of eight wells) and then allowed to dry. Trays were covered with a clear self-adhesive cover and held at 25° C., 14:10 light-dark for five to seven days. Percent mortality was recorded for the larvae in each well; activity in the eight wells was then averaged. The results are indicated in the table entitled “Table ABC: Biological Results” (See Table Section).

[2] = tested on: Cabbage Looper (Trichoplusia ni, TRIPNI); experiment: Bioassay on Cabbage Looper (CL), 128-well diet tray assay; conditions: 168 h, 50 μg/cm^2 on artificial diet, second instar larvae, five to seven days, 25° C., read-out: CL % Control (or Mortality) rating
Procedure: as §1, §2
Bioassays on CL were conducted using a 128-well diet tray assay. one to five second instar CL larvae were placed in each well (3 mL) of the diet tray that had been previously filled with 1 mL of artificial diet to which 50 μg/cm^2 of the test molecule (dissolved in 50 μL of 90:10 acetone-water mixture) had been applied (to each of eight wells) and then allowed to dry. Trays were covered with a clear self-adhesive cover and held at 25° C., 14:10 light-dark for five to seven days. Percent mortality was recorded for the larvae in each well; activity in the eight wells was then averaged. The results are indicated in the table entitled “Table ABC: Biological Results” (See Table Section).

[3] = tested on: Corn Earworm (Helicoverpa zea, HELIZE); experiment: Bioassay on Corn Earworm (CEW), 128-well diet tray assay; conditions: 168 h, 50 μg/cm^2 on artificial diet, second instar larvae, five to seven days, 25° C., read-out: CEW % Control (or Mortality) rating
Procedure: as §1, §2
Bioassays on CEW were conducted using a 128-well diet tray assay. one to five second instar CEW larvae were placed in each well (3 mL) of the diet tray that had been previously filled with 1 mL of artificial diet to which 50 μg/cm^2 of the test molecule (dissolved in 50 μL of 90:10 acetone-water mixture) had been applied (to each of eight wells) and then allowed to dry. Trays were covered with a clear self-adhesive cover, and held at 25° C., 14:10 light-dark for five to seven days. Percent mortality was recorded for the larvae in each well; activity in the eight wells was then averaged. The results are indicated in the table entitled “Table ABC: Biological Results” (See Table Section).

[4] = tested on: Yellow Fever Mosquito (Aedes aegypti, AEDSAE); experiment: Bioassay on Yellow Fever Mosquito (YFM) larvae, 96-well plate; conditions: about 1 day-old larvae, 4000 ppm DMSO master plate diluted, graded after 3 days
Procedure: Example C: Bioassays on Yellow Fever Mosquito (Aedes aegypti, AEDSAE) (“YFM”)
Certain molecules disclosed in this document were tested against YFM using procedures described in the following paragraph. In the reporting of the results, the “YFM Rating Table” was used (See Table Section).
Master plates containing 400 μg of a molecule dissolved in 100 μL of dimethyl sulfoxide (DMSO) (equivalent to a 4000 ppm solution) are used. A master plate of assembled molecules contains 15 μL per well. To this plate, 135 μL of a 90:10 water:acetone mixture is added to each well. A robot (Biomek® NXP Laboratory Automation Workstation) is programmed to dispense 15 μL aspirations from the master plate into an empty 96-well shallow plate (“daughter” plate). There are 6 reps (“daughter” plates) created per master. The created daughter plates are then immediately infested with YFM larvae.
The day before plates are to be treated, mosquito eggs are placed in Millipore water containing liver powder to begin hatching (4 g. into 400 mL). After the daughter plates are created using the robot, they are infested with 220 μL of the liver powder/larval mosquito mixture (about 1 day-old larvae). After plates are infested with mosquito larvae, a non-evaporative lid is used to cover the plate to reduce drying. Plates are held at room temperature for 3 days prior to grading. After 3 days, each well is observed and scored based on mortality. The results are indicated in the table entitled “Table ABC: Biological Results” (See Table Section).

Structure (SMILES)	mortality at 50 µg/cm2 [1]	mortality at 50 µg/cm2 [2]	mortality at 50 µg/cm2 [3]	YFM % Control (or Mortality) rating [4]
O=C(Nc1ccc(-c2ncn(-c3ccc(OC(F)(F)F)cc3)n2)cc1)Nc1nccn1-c1ccccc1 [F20, 1-(1-Phenyl-1H-imidazol-2-yl)-3-(4-(1-(4-(trifluoromethoxy)phenyl)-1H-1,2,4-triazol-3-yl)phenyl)urea]	50 to 100%	50 to 100%	50 to 100%	
Cc1ccccc1-n1ccnc1NC(=O)Nc1ccc(-c2ncn(-c3ccc(OC(F)(F)F)cc3)n2)cc1 [F21, 1-(1-(o-Tolyl)-1H-imidazol-2-yl)-3-(4-(1-(4-(trifluoromethoxy)phenyl)-1H-1,2,4-triazol-3-yl)phenyl)urea]	50 to 100%	50 to 100%	50 to 100%	
CC(C)c1ccccc1-n1ccnc1NC(=O)Nc1ccc(-c2ncn(-c3ccc(OC(F)(F)F)cc3)n2)cc1 [F22, 1-(1-(2-Isopropylphenyl)-1H-imidazol-2-yl)-3-(4-(1-(4-(trifluoromethoxy)phenyl)-1H-1,2,4-triazol-3-yl)phenyl)urea]	50 to 100%	50 to 100%	50 to 100%	
COc1cccc(-n2ccnc2NC(=O)Nc2ccc(-c3ncn(-c4ccc(OC(F)(F)F)cc4)n3)cc2)c1 [F23, 1-(1-(3-Methoxyphenyl)-1H-imidazol-2-yl)-3-(4-(1-(4-(trifluoromethoxy)phenyl)-1H-1,2,4-triazol-3-yl)phenyl)urea]	50 to 100%	50 to 100%	50 to 100%	
Cc1cccc(-n2ccnc2NC(=O)Nc2ccc(-c3ncn(-c4ccc(OC(F)(F)F)cc4)n3)cc2)c1 [F24, 1-(1-(m-Tolyl)-1H-imidazol-2-yl)-3-(4-(1-(4-(trifluoromethoxy)phenyl)-1H-1,2,4-triazol-3-yl)phenyl)urea]	50 to 100%	50 to 100%	50 to 100%	
CC(C)c1cccc(-n2ccnc2NC(=O)Nc2ccc(-c3ncn(-c4ccc(OC(F)(F)F)cc4)n3)cc2)c1 [F25, 1-(1-(3-Isopropylphenyl)-1H-imidazol-2-yl)-3-(4-(1-(4-(trifluoromethoxy)phenyl)-1H-1,2,4-triazol-3-yl)phenyl)urea]	50 to 100%	50 to 100%	50 to 100%	
CCc1cccc(-n2ccnc2NC(=O)Nc2ccc(-c3ncn(-c4ccc(OC(F)(F)F)cc4)n3)cc2)c1 [F26, 1-(1-(3-Ethylphenyl)-1H-imidazol-2-yl)-3-(4-(1-(4-(trifluoromethoxy)phenyl)-1H-1,2,4-triazol-3-yl)phenyl)urea]	50 to 100%	50 to 100%	50 to 100%	
O=C(Nc1ccc(-c2ncn(-c3ccc(OC(F)(F)F)cc3)n2)cc1)Nc1nccn1-c1cccc(Cl)c1 [F27, 1-(1-(3-Chlorophenyl)-1H-imidazol-2-yl)-3-(4-(1-(4-(trifluoromethoxy)phenyl)-1H-1,2,4-triazol-3-yl)phenyl)urea]	50 to 100%	50 to 100%	50 to 100%	
Cc1ccc(-n2ccnc2NC(=O)Nc2ccc(-c3ncn(-c4ccc(OC(F)(F)F)cc4)n3)cc2)cc1 [F29, 1-(1-(p-Tolyl)-1H-imidazol-2-yl)-3-(4-(1-(4-(trifluoromethoxy)phenyl)-1H-1,2,4-triazol-3-yl)phenyl)urea]	50 to 100%	50 to 100%	50 to 100%	
COc1ccc(-n2ccnc2NC(=O)Nc2ccc(-c3ncn(-c4ccc(OC(F)(F)F)cc4)n3)cc2)cc1 [F30, 1-(1-(4-Methoxyphenyl)-1H-imidazol-2-yl)-3-(4-(1-(4-(trifluoromethoxy)phenyl)-1H-1,2,4-triazol-3-yl)phenyl)urea]	50 to 100%	50 to 100%	50 to 100%	
O=C(Nc1ccc(-c2ncn(-c3ccc(OC(F)(F)F)cc3)n2)cc1)Nc1nccn1-c1ccccn1 [F31, 1-(1-(Pyridin-2-yl)-1H-imidazol-2-yl)-3-(4-(1-(4-(trifluoromethoxy)phenyl)-1H-1,2,4-triazol-3-yl)phenyl)urea]	50 to 100%	50 to 100%	50 to 100%	
O=C(Nc1ccc(-c2ncn(-c3ccc(OC(F)(F)F)cc3)n2)cc1)Nc1nccn1-c1ccncc1 [F33, 1-(1-(Pyridin-4-yl)-1H-imidazol-2-yl)-3-(4-(1-(4-(trifluoromethoxy)phenyl)-1H-1,2,4-triazol-3-yl)phenyl)urea]	50 to 100%	50 to 100%	50 to 100%	
O=C(NCCc1ccc(-c2ncn(-c3ccc(OC(F)(F)F)cc3)n2)cc1)Nc1ncc(-c2ccccc2)o1 [F52, 1-(5-phenyloxazol-2-yl)-3-(4-(1-(4-(trifluoromethoxy)phenyl)-1H-1,2,4-triazol-3-yl)phenethyl)urea]	50 to 100%	50 to 100%	0%	
Cn1oc(NC(=O)NCCc2ccc(-c3ncn(-c4ccc(OC(F)(F)F)cc4)n3)cc2)c(-c2c(Cl)cccc2Cl)c1=O [F60, 1-(4-(2,6-Dichlorophenyl)-2-methyl-3-oxo-2,3-dihydroisoxazol-5-yl)-3-(4-(1-(4-(trifluoromethoxy)phenyl)-1H-1,2,4-triazol-3-yl)phenethyl)urea]	50 to 100%	50 to 100%		A (80-100)
CCc1ccccc1-c1ncsc1NC(=O)NCCc1ccc(-c2ncn(-c3ccc(OC(F)(F)F)cc3)n2)cc1 [F61, 1-(4-(2-ethylphenyl)thiazol-5-yl)-3-(4-(1-(4-(trifluoromethoxy)phenyl)-1H-1,2,4-triazol-3-yl)phenethyl)urea]	0%	50 to 100%		A (80-100)
Cc1ccc(C)c(-c2ncsc2NC(=O)NCCc2ccc(-c3ncn(-c4ccc(OC(F)(F)F)cc4)n3)cc2)c1 [F62, 1-(4-(2,5-Dimethylphenyl)thiazol-5-yl)-3-(4-(1-(4-(trifluoromethoxy)phenyl)-1H-1,2,4-triazol-3-yl)phenethyl)urea]	0%	50 to 100%		A (80-100)
COc1ccc(-c2ncsc2NC(=O)NCCc2ccc(-c3ncn(-c4ccc(OC(F)(F)F)cc4)n3)cc2)c(C)c1 [F63, 1-(4-(4-Methoxy-2-methylphenyl)thiazol-5-yl)-3-(4-(1-(4-(trifluoromethoxy)phenyl)-1H-1,2,4-triazol-3-yl)phenethyl)urea]	0%	50 to 100%		A (80-100)
O=C(NCCc1ccc(-c2ncn(-c3ccc(OC(F)(F)F)cc3)n2)cc1)Nc1scnc1-c1c(Cl)cccc1Cl [F64, 1-(4-(2,6-Dichlorophenyl)thiazol-5-yl)-3-(4-(1-(4-(trifluoromethoxy)phenyl)-1H-1,2,4-triazol-3-yl)phenethyl)urea]	0%	50 to 100%		A (80-100)
